Results: ChEMBL document CHEMBL3991601, “The target landscape of clinical kinase drugs” (Science, 2017)
Activity calls are given as the source filed them. For most assays here, no stated cut-off is given here; in the data, actives have a measured Kd and inactives only a lower limit.

How the values were obtained:
[1] = target: Cyclin-dependent kinase 6 (Homo sapiens, UniProt Q00534)
[2] = target: T1, Serine/threonine-protein kinase Chk1 (Homo sapiens, UniProt O14757)
T1 sequence (O14757 whole entry): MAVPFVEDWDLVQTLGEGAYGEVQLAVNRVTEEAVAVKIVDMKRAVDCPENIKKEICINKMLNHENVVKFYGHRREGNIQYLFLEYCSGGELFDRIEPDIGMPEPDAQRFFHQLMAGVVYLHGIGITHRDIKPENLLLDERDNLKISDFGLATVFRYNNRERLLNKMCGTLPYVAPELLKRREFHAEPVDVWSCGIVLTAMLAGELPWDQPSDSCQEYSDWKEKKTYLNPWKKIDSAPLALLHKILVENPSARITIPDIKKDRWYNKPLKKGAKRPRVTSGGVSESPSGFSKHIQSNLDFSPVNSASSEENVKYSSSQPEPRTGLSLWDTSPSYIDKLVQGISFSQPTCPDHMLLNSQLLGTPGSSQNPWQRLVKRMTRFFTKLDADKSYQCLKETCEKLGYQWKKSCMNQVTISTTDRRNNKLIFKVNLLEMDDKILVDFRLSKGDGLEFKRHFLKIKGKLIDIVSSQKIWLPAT

[3] = target: T2, ATP-dependent RNA helicase DDX42 (Homo sapiens, UniProt Q86XP3)
T2 sequence (Q86XP3 whole entry): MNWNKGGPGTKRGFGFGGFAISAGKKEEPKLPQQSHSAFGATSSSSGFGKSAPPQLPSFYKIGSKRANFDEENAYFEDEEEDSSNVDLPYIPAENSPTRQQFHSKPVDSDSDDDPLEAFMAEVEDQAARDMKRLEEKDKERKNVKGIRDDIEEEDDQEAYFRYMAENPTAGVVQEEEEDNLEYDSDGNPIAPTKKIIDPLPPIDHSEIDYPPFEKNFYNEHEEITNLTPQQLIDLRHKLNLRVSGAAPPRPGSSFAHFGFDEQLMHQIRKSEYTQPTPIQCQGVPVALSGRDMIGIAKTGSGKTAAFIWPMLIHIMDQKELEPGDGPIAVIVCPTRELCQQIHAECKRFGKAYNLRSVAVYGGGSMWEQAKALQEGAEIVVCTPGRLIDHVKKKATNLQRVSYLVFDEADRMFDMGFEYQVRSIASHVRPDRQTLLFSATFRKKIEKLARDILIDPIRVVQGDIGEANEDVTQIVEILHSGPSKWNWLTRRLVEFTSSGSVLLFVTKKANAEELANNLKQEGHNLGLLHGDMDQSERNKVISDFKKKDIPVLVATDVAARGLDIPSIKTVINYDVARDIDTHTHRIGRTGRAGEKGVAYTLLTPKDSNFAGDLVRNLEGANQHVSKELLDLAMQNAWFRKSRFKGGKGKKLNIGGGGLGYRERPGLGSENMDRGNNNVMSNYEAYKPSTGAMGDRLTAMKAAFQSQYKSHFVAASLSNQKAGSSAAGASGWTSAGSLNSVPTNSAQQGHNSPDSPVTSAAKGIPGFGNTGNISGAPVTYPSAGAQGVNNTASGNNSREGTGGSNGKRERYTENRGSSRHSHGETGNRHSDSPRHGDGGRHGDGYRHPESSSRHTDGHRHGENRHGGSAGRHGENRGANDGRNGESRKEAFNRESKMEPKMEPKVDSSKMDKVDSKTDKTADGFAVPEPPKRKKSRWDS

[4] = target: Eukaryotic translation initiation factor 2-alpha kinase 1 (Homo sapiens, UniProt Q9BQI3)
[5] = target: T3, Ephrin type-B receptor 6 (Homo sapiens, UniProt O15197)
T3 sequence (O15197 whole entry): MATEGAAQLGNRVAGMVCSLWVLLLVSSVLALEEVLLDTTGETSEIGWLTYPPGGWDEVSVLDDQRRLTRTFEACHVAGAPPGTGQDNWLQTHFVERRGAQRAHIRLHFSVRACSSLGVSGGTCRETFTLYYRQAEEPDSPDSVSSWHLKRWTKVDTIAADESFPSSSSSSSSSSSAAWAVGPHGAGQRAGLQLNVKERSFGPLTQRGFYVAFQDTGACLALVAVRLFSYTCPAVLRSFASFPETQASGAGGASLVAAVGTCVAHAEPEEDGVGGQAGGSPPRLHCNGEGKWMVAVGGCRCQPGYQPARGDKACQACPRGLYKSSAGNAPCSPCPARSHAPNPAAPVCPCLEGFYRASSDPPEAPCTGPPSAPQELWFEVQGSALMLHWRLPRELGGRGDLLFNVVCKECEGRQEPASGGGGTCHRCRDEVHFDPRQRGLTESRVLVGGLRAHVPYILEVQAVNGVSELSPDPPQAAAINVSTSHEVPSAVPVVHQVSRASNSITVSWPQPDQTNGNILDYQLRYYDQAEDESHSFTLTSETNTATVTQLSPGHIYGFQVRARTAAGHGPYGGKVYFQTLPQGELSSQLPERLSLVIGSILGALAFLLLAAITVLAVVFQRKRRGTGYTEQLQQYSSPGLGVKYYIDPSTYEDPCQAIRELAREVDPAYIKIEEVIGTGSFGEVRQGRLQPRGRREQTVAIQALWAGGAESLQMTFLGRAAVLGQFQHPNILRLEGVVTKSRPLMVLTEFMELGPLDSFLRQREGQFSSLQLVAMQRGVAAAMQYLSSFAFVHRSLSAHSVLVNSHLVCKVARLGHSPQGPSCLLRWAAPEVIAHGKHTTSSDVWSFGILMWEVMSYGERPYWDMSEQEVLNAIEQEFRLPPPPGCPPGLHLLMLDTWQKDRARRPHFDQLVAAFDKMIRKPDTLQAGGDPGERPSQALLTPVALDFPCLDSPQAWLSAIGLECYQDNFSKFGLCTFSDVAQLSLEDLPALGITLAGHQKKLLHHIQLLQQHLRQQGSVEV

[6] = target: Mitogen-activated protein kinase kinase kinase kinase 4 (Homo sapiens, UniProt O95819)
[7] = target: Mitogen-activated protein kinase kinase kinase kinase 5 (Homo sapiens, UniProt Q9Y4K4)

Measured: Kd

Sequence of Mitogen-activated protein kinase kinase kinase kinase 5 (Q9Y4K4 whole entry): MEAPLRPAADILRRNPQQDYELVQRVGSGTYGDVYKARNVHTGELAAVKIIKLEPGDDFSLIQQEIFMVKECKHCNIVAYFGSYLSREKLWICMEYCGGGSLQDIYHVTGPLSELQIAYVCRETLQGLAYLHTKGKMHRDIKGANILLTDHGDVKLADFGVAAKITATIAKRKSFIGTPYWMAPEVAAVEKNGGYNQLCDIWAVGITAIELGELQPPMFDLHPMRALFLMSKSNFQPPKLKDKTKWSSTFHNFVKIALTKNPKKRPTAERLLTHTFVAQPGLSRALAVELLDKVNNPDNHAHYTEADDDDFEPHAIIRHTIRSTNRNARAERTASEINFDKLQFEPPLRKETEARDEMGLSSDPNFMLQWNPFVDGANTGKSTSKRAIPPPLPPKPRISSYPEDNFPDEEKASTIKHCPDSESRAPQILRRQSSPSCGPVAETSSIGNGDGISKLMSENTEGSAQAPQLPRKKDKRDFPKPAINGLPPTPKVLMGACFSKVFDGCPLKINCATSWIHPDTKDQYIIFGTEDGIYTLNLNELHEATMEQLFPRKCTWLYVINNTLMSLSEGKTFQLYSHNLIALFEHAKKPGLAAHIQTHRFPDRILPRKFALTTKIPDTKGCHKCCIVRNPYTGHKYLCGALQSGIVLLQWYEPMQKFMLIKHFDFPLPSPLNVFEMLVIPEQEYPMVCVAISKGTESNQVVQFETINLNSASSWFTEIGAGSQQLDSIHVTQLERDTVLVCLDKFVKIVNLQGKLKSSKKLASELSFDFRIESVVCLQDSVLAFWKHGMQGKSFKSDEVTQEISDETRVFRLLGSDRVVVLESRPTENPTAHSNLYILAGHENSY
Sequence of Mitogen-activated protein kinase kinase kinase kinase 4 (O95819 whole entry): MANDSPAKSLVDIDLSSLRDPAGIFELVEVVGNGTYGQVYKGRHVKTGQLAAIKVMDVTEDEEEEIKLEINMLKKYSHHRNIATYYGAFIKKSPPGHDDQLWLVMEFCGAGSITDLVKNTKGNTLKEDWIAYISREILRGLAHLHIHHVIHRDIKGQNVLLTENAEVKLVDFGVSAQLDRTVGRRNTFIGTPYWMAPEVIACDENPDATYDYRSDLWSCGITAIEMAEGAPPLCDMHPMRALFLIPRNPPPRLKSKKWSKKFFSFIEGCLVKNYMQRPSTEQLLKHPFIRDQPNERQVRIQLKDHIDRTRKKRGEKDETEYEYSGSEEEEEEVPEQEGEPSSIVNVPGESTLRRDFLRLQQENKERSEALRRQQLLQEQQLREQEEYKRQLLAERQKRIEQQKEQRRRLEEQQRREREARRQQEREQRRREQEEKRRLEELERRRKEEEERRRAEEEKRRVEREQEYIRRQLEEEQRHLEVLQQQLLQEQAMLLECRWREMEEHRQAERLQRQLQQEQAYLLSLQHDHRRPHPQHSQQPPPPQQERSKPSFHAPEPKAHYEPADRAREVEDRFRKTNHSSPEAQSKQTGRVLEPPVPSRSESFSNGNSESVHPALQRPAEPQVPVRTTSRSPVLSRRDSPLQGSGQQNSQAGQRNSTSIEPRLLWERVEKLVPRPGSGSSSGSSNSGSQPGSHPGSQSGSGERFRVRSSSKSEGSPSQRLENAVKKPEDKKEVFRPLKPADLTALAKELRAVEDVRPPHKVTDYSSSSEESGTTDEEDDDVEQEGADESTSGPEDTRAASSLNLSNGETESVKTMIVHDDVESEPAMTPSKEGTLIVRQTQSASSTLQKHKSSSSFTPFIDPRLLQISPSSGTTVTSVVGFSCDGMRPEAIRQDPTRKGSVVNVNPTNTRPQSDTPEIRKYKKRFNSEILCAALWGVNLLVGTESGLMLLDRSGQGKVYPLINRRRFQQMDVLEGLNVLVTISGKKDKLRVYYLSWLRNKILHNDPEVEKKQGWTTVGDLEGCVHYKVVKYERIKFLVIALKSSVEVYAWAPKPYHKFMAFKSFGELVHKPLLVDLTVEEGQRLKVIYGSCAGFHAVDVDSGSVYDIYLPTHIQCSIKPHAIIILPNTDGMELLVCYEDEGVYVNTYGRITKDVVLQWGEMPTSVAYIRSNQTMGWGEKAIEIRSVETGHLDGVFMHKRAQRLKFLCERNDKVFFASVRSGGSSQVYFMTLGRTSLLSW
Sequence of Eukaryotic translation initiation factor 2-alpha kinase 1 (Q9BQI3 whole entry): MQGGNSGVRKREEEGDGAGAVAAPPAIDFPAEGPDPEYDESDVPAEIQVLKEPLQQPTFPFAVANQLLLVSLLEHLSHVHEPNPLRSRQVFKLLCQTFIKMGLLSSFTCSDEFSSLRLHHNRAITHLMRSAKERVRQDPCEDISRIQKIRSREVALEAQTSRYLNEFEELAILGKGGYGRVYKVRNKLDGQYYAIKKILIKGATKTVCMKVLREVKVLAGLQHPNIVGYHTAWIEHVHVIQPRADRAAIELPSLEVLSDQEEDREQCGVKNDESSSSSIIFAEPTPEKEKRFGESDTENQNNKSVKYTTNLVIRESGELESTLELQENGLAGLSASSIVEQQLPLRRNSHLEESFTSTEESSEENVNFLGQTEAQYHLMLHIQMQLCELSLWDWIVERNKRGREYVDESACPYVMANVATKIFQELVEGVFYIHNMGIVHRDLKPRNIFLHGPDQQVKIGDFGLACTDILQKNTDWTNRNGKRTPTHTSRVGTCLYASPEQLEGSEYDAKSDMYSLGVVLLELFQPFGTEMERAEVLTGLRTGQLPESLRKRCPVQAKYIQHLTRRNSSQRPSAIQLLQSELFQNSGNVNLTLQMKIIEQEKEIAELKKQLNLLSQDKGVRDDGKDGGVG
Sequence of Cyclin-dependent kinase 6 (Q00534 whole entry): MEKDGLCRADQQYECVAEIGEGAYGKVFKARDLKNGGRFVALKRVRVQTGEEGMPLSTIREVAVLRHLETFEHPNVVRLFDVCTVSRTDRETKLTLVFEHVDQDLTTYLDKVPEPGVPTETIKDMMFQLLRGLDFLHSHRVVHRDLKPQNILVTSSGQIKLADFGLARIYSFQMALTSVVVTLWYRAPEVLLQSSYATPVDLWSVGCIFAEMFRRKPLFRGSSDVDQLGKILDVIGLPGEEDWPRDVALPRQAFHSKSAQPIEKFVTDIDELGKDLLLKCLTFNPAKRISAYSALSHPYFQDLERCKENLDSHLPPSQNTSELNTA

Cc1cc(Nc2nc(N[C@@H](C)c3ncc(F)cn3)ncc2Cl)n[nH]1 [AZD-1480]
inactive: [1] > 30 µM | [2] > 30 µM | [3] > 30 µM | [4] > 30 µM | [5] > 30 µM | [6] > 30 µM | [7] > 30 µM

CCc1cc2c(cc1N1CCC(N3CCOCC3)CC1)C(C)(C)c1[nH]c3cc(C#N)ccc3c1C2=O [ALECTINIB]
inactive: [1] > 30 µM | [2] > 30 µM | [3] > 30 µM | [4] > 30 µM | [5] > 30 µM | [6] > 30 µM | [7] > 30 µM

FC(F)(F)c1ccc(CNc2ccc(Cc3c[nH]c4ncc(Cl)cc34)cn2)cn1 [PEXIDARTINIB]
inactive: [1] > 30 µM | [2] > 30 µM | [3] > 30 µM | [4] > 30 µM | [5] > 30 µM | [6] > 30 µM | [7] > 30 µM

O=S(=O)(c1cccc2c(O)nccc12)N1CCCNCC1 [HYDROXYFASUDIL]
inactive: [1] > 30 µM | [2] > 30 µM | [3] > 30 µM | [4] > 30 µM | [5] > 30 µM | [6] > 30 µM | [7] > 30 µM
